IC50 and EC50 data for 11 compounds are collected here from US7452914B2, “Spiro-benzo[c]chromene derivatives useful as modulators of the estrogen receptors” (Janssen Pharmaceutica N.V., priority 2004, dated 2008).

In one test the test system is MCF-7 cells. Briefly: MCF-7 Cell Proliferation Assay (14C-thymidine incorporation). Particulars: for IC50: 10 nM 17β-estradiol added, 14C-thymidine, read-out: Antagonist (No.); for EC50: MCF7, agonist mode, increase in 14C-thymidine relative to vehicle control, read-out: Agonist (No.). It counts as cell-based. How it is done: This assay was run according to the procedure described by Welshons, et al., (Breast Cancer Res. Treat., 1987, 10(2), 169-75), with minor modification.
Briefly, MCF-7 cells (from Dr. C. Jordan, Northwestern University) were maintained in RPMI 1640 phenol red free medium (Gibco) in 10% FBS (Hyclone), supplemented with bovine insulin and non-essential amino acid (Sigma). The cells were initially treated with 4-hydoxyltamoxifen (10^−8 M) and let stand at 37° C. for 24 hours. Following this incubation with tamoxifen, the cells were treated with compounds at various concentrations.
Compounds to be tested in the agonist mode were added to the culture media at varying concentrations. Compounds to be treated in the antagonist mode were prepared similarly, and 10 nM 17β-estradiol was also added to the culture media. The cells were incubated for 24 hours at 37° C. Following this incubation, 0.1 µCi of ^14C-thymidine (56 mCi/mmol, Amersham) was added to the culture media and the cells were incubated for an additional 24 hours at 37° C. The cells were then washed twice with Hank's buffered salt solution (HBSS) (Gibco) and counted with a scintillation counter. The increase in the ^14C-thymidine in the compound treated cells relative to the vehicle control cells were reported as percent increase in cell proliferation.
(Uptake of a labelled nucleoside into DNA is a usual measure of proliferation.)

The test system of test [1] is Human Endometrial Ishikawa Cells. Kind of test: Alkaline Phosphatase Assay in Human Endometrial Ishikawa Cells. It counts as cell-based. The conditions noted are these: alkaline phosphatase activity, chemiluminescence; for IC50: antagonist mode, 10 nM 17β-estradiol added, read-out: Antagonist (No.); for EC50: 72 h, agonist mode, 3 days incubation, read-out: Agonist (No.). How it is done: This assay was run according to the procedure described by Albert et a., Cancer Res, […], 50(11), 330-6-10, with minor modification.
Ishikawa cells (from ATCC) were maintained in DMEM/F12 (1:1) phenol red free medium (Gibco) supplemented with 10% calf serum (Hyclone). 24 hours prior to testing, the medium was changed to DMEM/F12 (1:1) phenol red free containing 2% calf serum.
Compounds to be tested in the agonist mode were added to the culture media at varying concentrations. Compounds to be treated in the antagonist mode were prepared similarly, and 10 nM 17β-estradiol was also added to the culture media. The cells were then incubated at 37° C. for 3 days. On the fourth day, the media was remove, 1 volume of 1× Dilution Buffer (Clontech) was added to the well followed by addition of 1 volume of Assay Buffer (Clontech). The cells were then incubated at room temperature for 5 minutes. 1 volume of freshly prepared Chemiluminescence Buffer (1 volume of chemiluminescent substrate (CSPD) in 19 volume Chemiluminescent Enhancer with final concentration of CSPD at 1.25 mM; Sigma Chemical Co.) was added. The cells were incubated at room temperature for 10 minutes and then quantified on a luminometer. The increase of chemiluminescence over vehicle control was used to calculate the increase in alkaline phosphatase activity.

Where [2] appears, read: Homo sapiens, MCF7, antagonist mode.

Like-named read-outs stand apart in the source and are kept apart here.

As for “9R*-2″,2″-Dimethyl-propionic Acid-{9-[4′-(2′-piperidinyl-ethoxy)-phenyl]-11,14-spiro[4,5]-5,6,7,8-tetrahydro-9H-benzo[c]chromen-2-yl Ester [R*-15]”, the IC50 in the test with MCF-7 cells (antagonist mode) is 770 nM; in test [1] it was 220 nM.

In the case of “9R*-2″,2″-Dimethyl-propionic Acid-{9-[4′-(2′-piperidinyl-ethoxy)-phenyl]-11,15-spiro[5,5]-5,6,7,8-tetrahydro-9H-benzo[c]chromen-2-yl Ester [R*-16]”, the values for the IC50 (in the test on MCF-7 cells (antagonist mode); in test [1]) were 271 nM and 25.8 nM, respectively.

“9S*-2″,2″-Dimethyl-propionic Acid-{9-[4′-(2′-piperidinyl-ethoxy)-phenyl]-11,14-spiro[4,5]-5,6,7,8-tetrahydro-9H-benzo[c]chromen-2-yl Ester [S*-15]”: the IC50 (in the test on MCF-7 cells (antagonist mode); in test [1]) was over 10000 nM in each case.

Take “9S*-2″,2″-Dimethyl-propionic Acid-{9-[4′-(2′-piperidinyl-ethoxy)-phenyl]-11,15-spiro[5,5]-5,6,7,8-tetrahydro-9H-benzo[c]chromen-2-yl Ester [S*-16]”: the IC50 (with MCF-7 cells (antagonist mode); in test [1]) was over 10000 nM throughout.

As for `Oc1ccc2c(c1)O[C@H](c1ccc(OCCN3CCCCC3)cc1)C1=C2CCC2(C1)SCCS2` (stereo in doubt) [R*-11, 9R*-2-(Hydroxy)-{9-[4′-(2′-piperidinyl-ethoxy)-phenyl]-11,14-spiro[4,5]-5,6,7,8-tetrahydro-9H-benzo[c]chromene], the EC50 (in the test with MCF-7 cells (Homo sapiens); in test [1] (Homo sapiens)) was over 10000 nM in each case. The IC50 in the test on MCF-7 cells (setting [2]) was 672 nM; in test [1] (Homo sapiens), 41.9 nM.

In the case of `Oc1ccc2c(c1)O[C@@H](c1ccc(OCCN3CCCCC3)cc1)C1=C2CCC2(C1)SCCS2` (stereo in doubt) [S*-11, 9S*-2-(Hydroxy)-{9-[4′-(2′-piperidinyl-ethoxy)-phenyl]-11,14-spiro[4,5]-5,6,7,8-tetrahydro-9H-benzo[c]chromene], the EC50 (in the test with MCF-7 cells (Homo sapiens); in test [1] (Homo sapiens)) was over 10000 nM throughout. The IC50 is over 10000 nM in the test on MCF-7 cells (setting [2]) and 1020 nM in test [1] (Homo sapiens).

As to `Oc1ccc2c(c1)OC(c1ccc(OCCN3CCCCC3)cc1)C1=C2CCC2(C1)SCCS2` (stereo not drawn) [Compound 11], the EC50 (with MCF-7 cells (Homo sapiens); in test [1] (Homo sapiens)) was over 10000 nM in each case. The IC50 in the test on MCF-7 cells (setting [2]) came out at 1060 nM; in test [1] (Homo sapiens), 29.6 nM.

Consider `Oc1ccc2c(c1)OC(c1ccc(OCCN3CCCCC3)cc1)C1=C2CCC2(C1)SCCCS2` (stereo not drawn) [Compound 12], for which the EC50 (in the test with MCF-7 cells (Homo sapiens); in test [1] (Homo sapiens)) was over 10000 nM each time. The IC50 with MCF-7 cells (setting [2]) is 686 nM; in test [1] (Homo sapiens), 35.1 nM.

Take `Oc1ccc2c(c1)OC(c1ccc(OCCN3CCCC3)cc1)C1=C2CCC2(C1)SCCS2` (stereo not drawn) [Compound 13]: the EC50 (in the test on MCF-7 cells (Homo sapiens); in test [1] (Homo sapiens)) was over 10000 nM in each case. For the same compound, the IC50 was over 10000 nM in the test on MCF-7 cells (setting [2]) and 1050 nM in test [1] (Homo sapiens).

As to `CCN(CC)CCOc1ccc(C2Oc3cc(O)ccc3C3=C2CC2(CC3)SCCS2)cc1` (stereo not drawn) [Compound 14], the EC50 (with MCF-7 cells (Homo sapiens); in test [1] (Homo sapiens)) was over 10000 nM in each case. Further, the IC50 came to 4970 nM with MCF-7 cells (setting [2]) and 65.9 nM in test [1] (Homo sapiens).

For the compound `O=S1(=O)CCCS(=O)(=O)C12CCC1=C(C2)C(c2ccc(OCCN3CCCCC3)cc2)Oc2cc(O)ccc21` (stereo not drawn) [Compound 17], the EC50 (in the test on MCF-7 cells (Homo sapiens); in test [1] (Homo sapiens)) was over 10000 nM each time. For the same compound, the IC50 (in the test with MCF-7 cells (setting [2]); in test [1] (Homo sapiens)) was over 10000 nM throughout.
